Values of other authors, collected in US20010001790A1, “TOPICAL FORMULATIONS COMPRISING SKIN PENETRATION AGENTS AND THE USE THEREOF” (priority 1999, published 2001).

Settings: propylene glycol vehicle; upon addition of cetyl alcohol at 3% by weight

## CC1(C)O[C@@H]2C[C@H]3[C@@H]4CCC5=CC(=O)C=C[C@]5(C)[C@@]4(F)[C@@H](O)C[C@]3(C)[C@]2(C(=O)CO)O1 [triamcinolone acetonide]
  reduction of skin penetration of the pharmaceutically active agent: 39%
